Test results taken from patent US4721787A, “Process for the preparation of benzo-(pyrano and thiopyrano)-pyridines” (Ciba-Geigy Corporation, priority 1985, dated 1988).

Test system: presynaptic dopamine receptor (dopamine autoreceptor)
Assay: rat gamma-butyrolactone (GBL) model, in-vivo presynaptic dopamine agonist (autoreceptor agonist) activity
Conditions: i.p.
Experimental: Indicative of potential neuroleptic activity of the compounds of the invention, the in-vivo presynaptic dopamine agonist activity (also called dopamine autoreceptor agonist activity) is determined in the rat gamma-butyrolactone (GBL) model by a modification of the procedure described by Walters and Roth, Naunyn Schmiedeberg's Arch. Pharmacol. 296, 5 (1976). In this model, a presynaptic dopamine agonist inhibits the GBL-induced accumulation of the dopamine precursor DOPA after pretreatment with 3-hydroxybenzylhydrazine (NSD-1015), a DOPA decarboxylase inhibitor.
Test compounds are dissolved in 0.9% saline, with sodium metabisulfite to prevent oxidation, if required. […] Dihydroxyphenylalanine (DOPA) is analyzed by High Pressure Liquid Chromatography/Electrochemistry (HPLC/EC) techniques using a Bio-analytical Systems (BAS) Model LC-150 series Liquid Chromatograph. […] Compounds are detected with an electro-chemical detector having an oxidizing potential of 0.7 volts and sensitivity setting of 20 nAmps/V. Tissue concentrations and recoveries are calculated by using the internal standard dihydroxybenzylamine (DHBA). […] Data is statistically analysed by one-way Analysis of Variance with Duncan's Multiple Comparison Test. The activity of the test compounds is determined as the percent inhibition of DOPA accumulation at a given dose. […]

`CCCN1CCC[C@@H]2c3cc(O)ccc3OC[C@H]21.Cl` (relative stereo) [trans-9-hydroxy-4-propyl-1,2,3,4a,5,10b-hexahydro-4H-[1]-benzopyrano[3,4-b]pyridine hydrochloride] was tested, and the “ED50 in the GBL model (inhibition of DOPA accumulation by 50%)” value was “about 0.16 mg/kg”.
